Experimental data: PubChem BioAssay (NCI)
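Five concentrations, 48 hours, 96-well plates. Here, GI50 denotes the concentration required for 50% inhibition of growth. TGI: concentration producing complete growth inhibition.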

Tests used:
Assay in all cases: growth of human tumour cells (NCI), 48 h
[1] = tested on: UO-31 renal
[2] = tested on: HCT-116 colon
[3] = tested on: NCI-H226 lung
[4] = tested on: HOP-62 NSCLC
[5] = tested on: LOX IMVI melanoma
[6] = tested on: ACHN renal
[7] = tested on: SK-MEL-2 melanoma
[8] = tested on: M14 melanoma
[9] = tested on: HOP-92 NSCLC
[10] = tested on: SK-OV-3 ovarian
[11] = tested on: OVCAR-8 ovarian
[12] = tested on: RPMI-8226 leukemia
[13] = tested on: CCRF-CEM leukemia
[14] = tested on: PC-3 prostate
[15] = tested on: MDA-MB-231 breast
[16] = tested on: KM12 colon
[17] = tested on: HCT-15 colon
[18] = tested on: SK-MEL-5 melanoma
[19] = tested on: SF-539 CNS
[20] = tested on: SW-620 colon
[21] = tested on: SNB-75 CNS
[22] = tested on: NCI-H23 lung
[23] = tested on: RXF 393 renal
[24] = tested on: EKVX NSCLC
[25] = tested on: MOLT-4 leukemia
[26] = tested on: BT-549 breast
[27] = tested on: SR leukemia
[28] = tested on: T-47D breast
[29] = tested on: NCI/ADR-RES ovarian
[30] = tested on: SF-295 CNS
[31] = tested on: MCF7 breast
[32] = tested on: 786-0 renal
[33] = tested on: MDA-MB-435
[34] = tested on: K-562 leukemia
[35] = tested on: SNB-19 CNS
[36] = tested on: IGROV1 ovarian
[37] = tested on: DU-145 prostate
[38] = tested on: U251 CNS
[39] = tested on: SK-MEL-28 melanoma
[40] = tested on: OVCAR-3 ovarian
[41] = tested on: MDA-N
[42] = tested on: A549 NSCLC
[43] = tested on: COLO 205 colon
[44] = tested on: HL-60(TB) leukemia
[45] = tested on: A498 renal
[46] = tested on: UACC-257 melanoma
[47] = tested on: SN12C renal
[48] = tested on: CAKI-1 renal
[49] = tested on: OVCAR-4 ovarian
[50] = tested on: OVCAR-5 ovarian
[51] = tested on: HT29 colon
[52] = tested on: TK-10 renal
[53] = tested on: SF-268 CNS
[54] = tested on: MALME-3M melanoma
[55] = tested on: UACC-62 melanoma
[56] = tested on: HS 578T breast
[57] = tested on: NCI-H460 lung
[58] = tested on: HCC-2998 colon
[59] = tested on: NCI-H522 lung

COc1cc(S(=O)(=O)N/N=C/c2cc(Br)c(O)c(OC)c2)c(OC)cc1NC(C)=O
TGI [1]: > 100 µM
TGI [2]: > 100 µM
TGI [3]: > 100 µM
TGI [4]: > 100 µM
TGI [5]: > 100 µM
TGI [6]: > 100 µM
TGI [7]: > 100 µM
TGI [8]: > 100 µM
TGI [9]: > 100 µM
TGI [10]: > 100 µM
TGI [11]: > 100 µM
TGI [12]: > 100 µM
TGI [13]: 56.5 µM
TGI [14]: > 100 µM
TGI [15]: > 100 µM
TGI [16]: > 100 µM
TGI [17]: > 100 µM
TGI [18]: > 100 µM
TGI [19]: 41.8 µM
TGI [20]: > 100 µM
TGI [21]: > 100 µM
TGI [22]: > 100 µM
TGI [23]: > 100 µM
TGI [24]: > 100 µM
TGI [25]: > 100 µM
TGI [26]: > 100 µM
TGI [27]: > 100 µM
TGI [28]: > 100 µM
TGI [29]: > 100 µM
TGI [30]: > 100 µM
TGI [31]: > 100 µM
TGI [32]: 66.5 µM
TGI [33]: > 100 µM
TGI [34]: > 100 µM
TGI [35]: > 100 µM
TGI [36]: > 100 µM
TGI [37]: > 100 µM
TGI [38]: > 100 µM
TGI [39]: > 100 µM
TGI [40]: > 100 µM
TGI [41]: > 100 µM
TGI [42]: > 100 µM
TGI [43]: 51.3 µM
TGI [44]: 58 µM
TGI [45]: > 100 µM
TGI [46]: > 100 µM
TGI [47]: > 100 µM
TGI [48]: > 100 µM
TGI [49]: > 100 µM
TGI [50]: > 100 µM
TGI [51]: > 100 µM
TGI [52]: > 100 µM

O=C(C=P(c1ccccc1)(c1ccccc1)c1ccccc1)c1ccc(-c2ccc(F)cc2F)cc1
TGI [1]: 4.08 µM
TGI [2]: 8.81 µM
TGI [3]: 7.16 µM
TGI [4]: 15.5 µM
TGI [6]: 6.76 µM
TGI [53]: 15.5 µM
TGI [8]: 5.76 µM
TGI [54]: 7.17 µM
TGI [9]: 7.24 µM
TGI [10]: 8.63 µM
TGI [55]: 4.25 µM
TGI [12]: 4.43 µM
TGI [13]: 7.06 µM
TGI [14]: 17.5 µM
TGI [15]: 4.92 µM
TGI [56]: 28.3 µM
TGI [16]: 13.8 µM
TGI [17]: 7.81 µM
TGI [18]: 3.55 µM
TGI [19]: 10.8 µM
TGI [20]: 14.9 µM
TGI [22]: 12.2 µM
TGI [23]: 7.29 µM
TGI [24]: 11 µM
TGI [27]: 7.55 µM
TGI [28]: 7.58 µM
TGI [29]: 13.2 µM
TGI [30]: 9.87 µM
TGI [31]: 7.95 µM
TGI [32]: 13.7 µM
TGI [33]: 5.79 µM
TGI [34]: 5.31 µM
TGI [35]: 20.6 µM
TGI [57]: 4.09 µM
TGI [37]: 16.2 µM
TGI [38]: 13.9 µM
TGI [39]: 8.14 µM
TGI [40]: 5.19 µM
TGI [41]: 8.8 µM
TGI [42]: 11.4 µM
TGI [43]: 3.14 µM
TGI [44]: 5.13 µM
TGI [45]: 7.41 µM
TGI [46]: 8.57 µM
TGI [58]: 4.12 µM
TGI [47]: 5.31 µM
TGI [48]: 5.55 µM
TGI [49]: 9.96 µM
TGI [50]: 9.29 µM
TGI [51]: 3.94 µM
TGI [52]: 7.2 µM

CCOC(=O)c1c(-c2ccc(OC)c(O)c2)c(C#N)c(=S)n(C2OC(CO)C(O)C(O)C2O)c1-c1ccccc1 (centres undefined)
TGI [1]: > 100 µM
TGI [2]: > 100 µM
TGI [3]: > 100 µM
TGI [4]: > 100 µM
TGI [5]: > 100 µM
TGI [6]: > 100 µM
TGI [53]: > 100 µM
TGI [8]: > 100 µM
TGI [55]: > 100 µM
TGI [12]: > 100 µM
TGI [13]: > 100 µM
TGI [14]: > 100 µM
TGI [56]: > 100 µM
TGI [16]: > 100 µM
TGI [17]: > 100 µM
TGI [18]: > 100 µM
TGI [20]: > 100 µM
TGI [22]: > 100 µM
TGI [23]: > 100 µM
TGI [24]: > 100 µM
TGI [25]: > 100 µM
TGI [27]: > 100 µM
TGI [29]: > 100 µM
TGI [30]: > 100 µM
TGI [32]: > 100 µM
TGI [33]: > 100 µM
TGI [34]: > 100 µM
TGI [35]: > 100 µM
TGI [36]: > 100 µM
TGI [57]: > 100 µM
TGI [37]: > 100 µM
TGI [38]: > 100 µM
TGI [39]: > 100 µM
TGI [41]: > 100 µM
TGI [42]: > 100 µM
TGI [43]: > 100 µM
TGI [45]: > 100 µM
TGI [46]: > 100 µM
TGI [58]: > 100 µM
TGI [47]: > 100 µM
TGI [48]: > 100 µM
TGI [49]: > 100 µM
TGI [51]: > 100 µM

NC(=S)N/N=C\c1nccc2c(C(F)(F)C(F)(F)C(F)(F)F)cccc12
GI50 [1]: 0.09 µM
TGI [1]: 0.892 µM
GI50 [2]: 0.0348 µM
TGI [2]: 1.45 µM
GI50 [3]: 0.162 µM
TGI [3]: 1.12 µM
GI50 [4]: 0.0752 µM
TGI [4]: 1.25 µM
GI50 [5]: 0.0725 µM
TGI [5]: 1.34 µM
GI50 [6]: 0.0582 µM
TGI [6]: 1.31 µM
GI50 [7]: 0.388 µM
TGI [7]: 3.23 µM
GI50 [53]: 0.0983 µM
TGI [53]: 4.22 µM
GI50 [8]: 0.0662 µM
TGI [8]: 0.589 µM
GI50 [54]: 0.189 µM
TGI [54]: 1.43 µM
GI50 [9]: 0.116 µM
TGI [9]: 1.44 µM
GI50 [10]: 0.0466 µM
TGI [10]: 1.43 µM
GI50 [11]: 0.0402 µM
TGI [11]: 1.59 µM
GI50 [55]: 0.171 µM
TGI [55]: 0.511 µM
GI50 [12]: 0.264 µM
GI50 [13]: 0.0427 µM
TGI [13]: > 100 µM
GI50 [14]: 0.0661 µM
TGI [14]: > 22.5 µM
GI50 [15]: 0.0561 µM
TGI [15]: 3 µM
GI50 [56]: 0.889 µM
TGI [56]: 22.6 µM
GI50 [16]: 0.0825 µM
TGI [16]: 8.05 µM
GI50 [17]: 0.0488 µM
TGI [17]: > 100 µM
GI50 [18]: 0.0996 µM
TGI [18]: 0.563 µM
GI50 [19]: 0.193 µM
TGI [19]: 0.772 µM
GI50 [20]: 0.0538 µM
TGI [20]: 24.3 µM
GI50 [21]: 0.124 µM
TGI [21]: 2.87 µM
GI50 [22]: 0.422 µM
TGI [22]: 12.4 µM
GI50 [23]: 0.113 µM
TGI [23]: 1.26 µM
GI50 [25]: 0.054 µM
TGI [25]: 8.8 µM
GI50 [26]: 0.313 µM
TGI [26]: 11.7 µM
GI50 [27]: 0.0433 µM
TGI [27]: > 32.4 µM
GI50 [28]: 0.0369 µM
TGI [28]: 1.51 µM
GI50 [29]: 0.167 µM
TGI [29]: 1.65 µM
GI50 [30]: 0.209 µM
TGI [30]: 1.7 µM
GI50 [31]: 0.0515 µM
TGI [31]: 7.54 µM
GI50 [32]: 0.26 µM
TGI [32]: 0.978 µM
GI50 [33]: 0.376 µM
TGI [33]: > 31.6 µM
GI50 [34]: 0.346 µM
TGI [34]: > 100 µM
GI50 [35]: 0.196 µM
TGI [35]: 5.21 µM
GI50 [36]: 0.223 µM
TGI [36]: 1.93 µM
GI50 [57]: 0.0619 µM
TGI [57]: 1.21 µM
GI50 [37]: 0.11 µM
TGI [37]: 2.92 µM
GI50 [38]: 0.0569 µM
TGI [38]: 1.25 µM
GI50 [39]: 0.25 µM
TGI [39]: 3.26 µM
GI50 [40]: 0.0347 µM
TGI [40]: 2.22 µM
GI50 [42]: 0.0978 µM
TGI [42]: 1.1 µM
GI50 [43]: 0.0327 µM
TGI [43]: 1.9 µM
GI50 [44]: 0.0649 µM
TGI [44]: 0.665 µM
GI50 [45]: 0.464 µM
TGI [45]: 2.1 µM
GI50 [46]: 0.12 µM
TGI [46]: 0.575 µM
GI50 [58]: 0.229 µM
TGI [58]: 4.48 µM
GI50 [59]: 0.211 µM
TGI [59]: 0.756 µM
GI50 [47]: 0.116 µM
TGI [47]: 2.31 µM
GI50 [48]: 0.183 µM
TGI [48]: 1.59 µM
GI50 [49]: 0.0329 µM
TGI [49]: 1.49 µM
GI50 [50]: 0.123 µM
TGI [50]: 16.8 µM
GI50 [51]: 0.137 µM
TGI [51]: 3.62 µM
GI50 [52]: 0.078 µM
TGI [52]: 2.3 µM
